Assay results as given in PMC11944670, “Reshaping [^99mTc]Tc-DT11 to DT14D Tagged with Trivalent Radiometals for NTS1R-Positive Cancer Theranostics” (Pharmaceutics, 2025).
Residues, ends and D or L forms follow the SMILES beside them. *: point of attachment. DOTA = O=C(O)CN1CCN(CC(=O)O)CCN(CC(=O)*)CCN(CC(=O)O)CC1; X1 = Cc1ccc(CCCC(=O)NCCOCCOCCOCCOCC(=O)*)cc1; βAla = NCCC(=O)O

Assays:
[1] = in vivo; parameters: species or system mice; conditions: male, SCID, mouse, iv, total radioactivity
Procedure: The distribution of [^67Ga]Ga/[^111In]In/[^177Lu]Lu-DT14D was investigated in male severe combined immunodeficiency (SCID) mice (49 mice in total, 6 weeks of age on arrival date, 22 ± 4 g, NCSR “Demokritos” Animal House, Athens, Greece) bearing NTS1R-positive AsPC-1 xenografts in their flanks. For xenograft induction, suspensions of freshly harvested AsPC-1 cells (5 × 10^6 cells in 150 µL sterile PBS) were subcutaneously injected into the mice’s flanks. The animals were kept under aseptic conditions and 4 weeks later developed well palpable masses at the inoculation sites (100 ± 50 mg) and biodistribution was conducted. On the day of the experiment, the animals received a bolus (100 μL, in vehicle: saline/EtOH 9/1 v/v) containing the radioligand via the tail vein. The following groups of four animals per time point, per treatment, were included per radioligand (the 4 h block groups comprised 3 animals instead) including the respective (radio)ligand amounts injected: i. 78–91 kBq [^67Ga]Ga-DT14D corresponding to 7–17 pmol DT14D at 1 and 4 h pi plus 4 h block (coinjection with 100 µg NT); ii. 74–92 kBq [^111In]In-DT14D corresponding to 20–25 pmol at 4 h (controls), 4 h pi (Entresto®; animals receiving a slurry of 12 mg/200 µL Entresto® oral gavage 30 min in advance) and 4 h block (coinjection with 100 µg NT); 24 h pi (including both controls and Entresto® mice groups); and iii. 730 kBq [^177Lu]Lu-DT14D corresponding to 40 pmol DT14D at 4, 24, 48, and 72 h pi plus 4 h block (co-injection with 100 µg NT). The animals were euthanized at predetermined time intervals, dissected and blood samples, organs of interest, and tumors were collected, weighed, and counted in the gamma counter. Biodistribution data were calculated as percent of the injected activity per gram tissue (%IA/g) with the aid of suitable standards of the administered activity. Results as the mean %IA/g values ± sd were obtained and statistical analysis was performed with PRISM^TM GraphPad—10.2 Software (San Diego, CA/USA), applying 2-way ANOVA with Tukey’s post hoc analysis, or, in the case of two variables, Šídák’s multiple comparisons test was adopted; differences with p < 0.05 were considered as statistically significant.

[2] = target: T1, human NTS1R (Homo sapiens, UniProt P30989); assay: Competitive binding against [125I]I-Tyr3-NT in WiDr cell membrane homogenates; conditions: displacement of [125I]I-Tyr3-NT, WiDr cell membranes, mean ± sd, n = 3
T1 construct: in membrane homogenates obtained from WiDr cells; endogenous in cells; host or cells: WiDr cells (membrane homogenates)
Procedure: The affinity of metal-free D[…] and metal-tagged [^natGa]Ga/[^natIn]In/[^natLu]Lu-D[…] (Supplementary Materials) for the human NTS1R was evaluated via competitive binding assays. These assays were performed using the [^125I]I-Tyr^3-NT radioligand in membrane homogenates obtained from WiDr cells, which were stored at -80 °C in 100 μL aliquots of Tris/EDTA buffer (10 mM Tris, 0.1 mM EDTA, pH 7.4). On the day of the experiment, the membrane homogenates were thawed, combined, and diluted in ice-cold binding buffer (BB: 50 mM HEPES, 5.5 mM MgCl2, 0.1 mg/mL bacitracin, 1% w/v BSA, pH 7.4). Each of the above ligands (including NT as a control) was incubated in triplicate at increasing concentrations (ranging from 10^-13 M to 10^-6 M in BB, 30 μL) with [^125I]I-Tyr^3-NT (214 pM in 70 μL BB) and membrane homogenate (300 μL in BB) for 1 h at 22 °C in an Incubator-Orbital Shaker unit (MPM Instr. SrI, Bernareggio, Milan, Italy). […] The filters were washed with ice-cold washing buffer (WB, 10 mM HEPES pH 7.4, 150 mM NaCl), collected individually, placed in separate RIA tubes, and measured for their radioactivity content in a gamma counter (automated multi-sample well-type instrument with a NaI(Tl) 3'' crystal, Canberra Packard Cobra^TM Quantum U5003/1, Auto-Gamma® counting system; Canberra Packard Central Europe GmbH, Schwadorf, Austria). […]

T1 sequence (P30989 whole entry): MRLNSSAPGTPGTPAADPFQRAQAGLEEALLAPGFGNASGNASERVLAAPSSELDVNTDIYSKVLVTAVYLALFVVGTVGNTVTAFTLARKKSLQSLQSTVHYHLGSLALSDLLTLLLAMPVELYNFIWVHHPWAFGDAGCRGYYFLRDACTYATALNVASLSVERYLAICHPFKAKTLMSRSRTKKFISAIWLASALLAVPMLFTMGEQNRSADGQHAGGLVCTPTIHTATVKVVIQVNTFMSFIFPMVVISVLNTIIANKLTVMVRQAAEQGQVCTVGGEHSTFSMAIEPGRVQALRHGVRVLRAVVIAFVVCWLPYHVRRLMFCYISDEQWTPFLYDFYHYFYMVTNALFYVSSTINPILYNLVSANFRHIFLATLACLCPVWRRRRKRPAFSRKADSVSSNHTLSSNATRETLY

CC[C@H](C)[C@H](NC(=O)[C@H](Cc1ccc(O)cc1)NC(=O)[C@@H]1CCCN1C(=O)[C@H](CCCNC(=N)N)NC(=O)[C@H](CCCNC(=N)N)NC(=O)[C@H](CCCCNC(=O)COCCOCCOCCOCCNC(=O)CCCc1ccc(C)cc1)NC(=O)CCNC(=O)CCNC(=O)CCNC(=O)CN1CCN(CC(=O)O)CCN(CC(=O)O)CCN(CC(=O)O)CC1)C(=O)N[C@@H](CC(C)C)C(=O)O [[^67Ga]Ga-DT14D, metal not drawn] ({DOTA-βAla-βAla-βAla}-K(X1)RRPYIL-OH)
tissue uptake at 1 h ([1]; Biodistribution, AsPC-1 Tumor): 11.4 ± 1.25 %ID/g
tissue uptake at 1 h ([1]; Biodistribution, Blood): 9.52 ± 0.76 %ID/g
tissue uptake at 1 h ([1]; Biodistribution, Femur): 2.24 ± 0.23 %ID/g
tissue uptake at 1 h ([1]; Biodistribution, Heart): 2.86 ± 0.16 %ID/g
tissue uptake at 1 h ([1]; Biodistribution, Intestines): 2.81 ± 0.53 %ID/g
tissue uptake at 1 h ([1]; Biodistribution, Kidneys): 7.1 ± 1.12 %ID/g
tissue uptake at 1 h ([1]; Biodistribution, Liver): 3.74 ± 0.37 %ID/g
tissue uptake at 1 h ([1]; Biodistribution, Lungs): 4.31 ± 0.28 %ID/g
tissue uptake at 1 h ([1]; Biodistribution, Muscle): 1.14 ± 0.15 %ID/g
tissue uptake at 1 h ([1]; Biodistribution, Pancreas): 1.41 ± 0.12 %ID/g
tissue uptake at 1 h ([1]; Biodistribution, Spleen): 2.86 ± 0.33 %ID/g
tissue uptake at 1 h ([1]; Biodistribution, Stomach): 0.97 ± 0.27 %ID/g
tissue uptake at 4 h ([1]; Biodistribution, Stomach): 0.45 ± 0.08 %ID/g
tissue to tissue ratio at 1 h ([1]; Tumor/Blood ratio): 1.2 ± 0.06
tissue to tissue ratio at 1 h ([1]; Tumor/Heart ratio): 3.99 ± 0.24
tissue to tissue ratio at 1 h ([1]; Tumor/Intestines ratio): 4.12 ± 0.52
tissue to tissue ratio at 1 h ([1]; Tumor/Kidneys ratio): 1.62 ± 0.13
tissue to tissue ratio at 4 h ([1]; Tumor/Kidneys ratio): 1.15 ± 0.12
tissue to tissue ratio at 1 h ([1]; Tumor/Liver ratio): 3.05 ± 0.19
tissue to tissue ratio at 1 h ([1]; Tumor/Lungs ratio): 2.64 ± 0.15
tissue to tissue ratio at 4 h ([1]; Tumor/Lungs ratio): 3.28 ± 0.21
tissue to tissue ratio at 1 h ([1]; Tumor/Muscle ratio): 10.1 ± 1.09
tissue to tissue ratio at 1 h ([1]; Tumor/Pancreas ratio): 8.09 ± 0.24
tissue to tissue ratio at 1 h ([1]; Tumor/Spleen ratio): 4 ± 0.08
tissue to tissue ratio at 1 h ([1]; Tumor/Stomach ratio): 12.2 ± 2.71
tissue to tissue ratio at 4 h ([1]; Tumor/Stomach ratio): 9.96 ± 1.68

CC[C@H](C)[C@H](NC(=O)[C@H](Cc1ccc(O)cc1)NC(=O)[C@@H]1CCCN1C(=O)[C@H](CCCNC(=N)N)NC(=O)[C@H](CCCNC(=N)N)NC(=O)[C@H](CCCCNC(=O)COCCOCCOCCOCCNC(=O)CCCc1ccc(C)cc1)NC(=O)CCNC(=O)CCNC(=O)CCNC(=O)CN1CCN(CC(=O)O)CCN(CC(=O)O)CCN(CC(=O)O)CC1)C(=O)N[C@@H](CC(C)C)C(=O)O [DT14D, DOTA-βAla-βAla-βAla-Lys(MPBA-PEG4)^7-Arg-Arg-Pro-Tyr-Ile-Leu-OH] ({DOTA-βAla-βAla-βAla}-K(X1)RRPYIL-OH)
IC50 [2]: 2.56 ± 0.26 nM
